Assay results as given in US20200375944A1, “LIPOIC ACID CHOLINE ESTER COMPOSITIONS AND METHODS TO GENERATE BIOCOMPATIBLE OPHTHALMIC FORMULATIONS” (ENCORE VISION, INC., priority 2015, published 2020).
Each block holds one compound with its values, some of them ahead of it.

Key:
[1] = test system: mouse lenses; conditions: ex-vivo; cited from earlier work
[2] = test system: human donor lenses; conditions: ex-vivo; cited from earlier work
[3] = Solubility profile of LACE; assay type: physicochemical
[4] = Hygroscopicity of LACE; assay type: physicochemical
[5] = Log P of LACE; assay type: physicochemical
[6] = Solution pH of LACE; assay type: physicochemical
[7] = Degradation of LACE formulation in storage (HPLC); assay type: physicochemical
Text: An issue that has rendered formulation of LACE problematic has been the propensity to destabilize by ring-opening of the dithiolane linkage to form oxidized species that compromise the activity of the molecule.

[8] = Osmolality of EV06 compositions adjusted with glycerol; assay type: physicochemical
Procedure: The requisite osmolality range for drug-containing formulations and placebo is 280-320 mOsm/kg. Preferably, all LACE formulations need to be within 290-310 mOsm/Kg.
A series of placebos was prepared. All placebos, and the LACE-containing solutions that were subsequently prepared, contained the following, with varying amounts of Glycerol: • 0.5% (5 mg/g) Alanine • 0.005% (0.05 mg/g) Benzalkonium Chloride • Small amounts of 1 N Sodium Hydroxide, 1 N Hydrochloric Acid, to adjust pH to 4.5 • Water for Injection (added for final weight)
Target for Total Osmolality was 300 mOsm/kg.
Accordingly, a full series of solutions was prepared with slightly altered target osmolalities for the solutions without LACE, and therefore different target glycerol contents. All solutions were prepared using the same Alanine/Benzalkonium Chloride, pH 4.5 stock solution used in the placebos, so that the final composition was consistently: […]

[9] = Applicant's earlier observations

Structure (SMILES): O=C(O)CCCC[C@@H]1CCSS1 (racemic) [lipoic acid]
Lens softening [1]: lens softening can be induced pharmacologically

Structure (SMILES): O[C@H](CS)[C@H](O)CS (racemic) [dithiothreitol (DTT), dithiothreitol]
Lens softening [2]: lens softening can be induced pharmacologically

Solubility in acetonitrile ([3]; acetonitrile): >4 mg/mL in acetonitrile | Solubility in water ([3]; water): >50 mg/mL in water | Hygroscopicity [4]: Highly hygroscopic | Log P [5]: <2 | Solution pH [6]: 7-7.5 | Degradation in storage ([7]; room temperature): rapidly degrades into oxidized species | Additional osmolality for every 1% LACE [8, 9]: 44-55 mOsm/kg | Additional osmolality for every 1% LACE, average [8, 9]: 48 mOsm/kg | Effect of LACE on osmolality for every 1% ([8]; from Table 7 series): 57-60 mOsm/kg
Structure (SMILES): C[N+](C)(C)CCOC(=O)CCCC[C@@H]1CCSS1 [LACE, Lipoic acid choline ester]
Degradation in storage ([7]; refrigerated temperatures): rapid oxidation occurs in storage as early as 1 week
